# Earlier results as cited in publication PMC2884396 (Journal of medicinal chemistry, 2010).
# What was measured:
# [1] = system: glucocorticoid receptor (GR); details: ref [24]-[27]
# androgen receptor (AR) = details: ref [24]-[27]
smiles,measurement,setting,value
"Cn1c(C#N)ccc1-c1ccc2c(c1)C(C)(C)OC(=S)N2 [Tanaproget (1), Tanaproget]",affinity for GR,[1],very low affinity
same,affinity for AR,androgen receptor (AR),very low affinity
